Assay results taken from patent publication US7303758B2 (Cordis Corporation, priority 2004, dated 2007).

Legend:
[1] = In vivo release kinetics from PVDF basecoat with PVDF topcoat, porcine pharmacokinetics studies; settings: six hundred micro grams basecoat, two hundred micro grams topcoat
Source text: The topcoat is two hundred micro grams.

[2] = In vivo release kinetics from EVA/BMA basecoat, porcine pharmacokinetics studies; settings: basecoat 180 μg rapamycin, 180 μg mycophenolic acid, 240 μg EVA/BMA, with or without BMA topcoat
[3] = system: non-synchronized cultured human coronary artery smooth muscle cells; experiment: Anti-proliferative activity of rapamycin with varying mycophenolic acid concentrations; assay type: cell-based; settings: mycophenolic acid zero to one thousand nano molar, two percent fetal bovine serum
Source text: The multiple curves represent various concentrations of mycophenolic acid ranging from zero to one thousand nano molar concentrations. […] This potentiation observed in cultured coronary artery smooth muscle cells preferably translates to an enhancement in anti-restenotic efficacy following vascular injury and a reduction in the required amount of either agent to achieve the desired anti-restenotic effect.

tumor cell lines = settings: cited from earlier work
[4] = system: human coronary artery smooth muscle cell proliferation; experiment: In vitro cell culture study of coronary artery smooth muscle cell proliferation; assay type: cell-based
Source text: FIG. 51 is a graph of the inhibition of coronary artery smooth muscle cells by trichostatin A in a cell culture study.

For CO[C@H]1C[C@@H]2CC[C@@H](C)[C@@](O)(O2)C(=O)C(=O)N2CCCC[C@H]2C(=O)O[C@H]([C@H](C)C[C@@H]2CC[C@@H](O)[C@H](OC)C2)CC(=O)[C@H](C)/C=C(\C)[C@@H](O)[C@@H](OC)C(=O)[C@H](C)C[C@H](C)/C=C/C=C/C=C/1C [Rapamycin, rapamycin], the “in vivo release rate from PVDF basecoat with PVDF topcoat” value [1] was “slower release rate than that of mycophenolic acid”.
With COc1c(C)c2c(c(O)c1C/C=C(\C)CCC(=O)O)C(=O)OC2 [mycophenolic acid] the “in vivo release from EVA/BMA basecoat” value [2] was “elutes more completely over a shorter duration than the rapamycin” and the “effect on anti-proliferative rapamycin dose response curve” value [3] was “potentiates the anti-proliferative activity of rapamycin”.
In the case of CC(/C=C/C(=O)NO)=C\[C@@H](C)C(=O)c1ccc(N(C)C)cc1 [trichostatin A], the “anti-proliferative IC50” value (tumor cell lines) is listed as “low nM range”, the IC50 ([4]; human coronary artery smooth muscle cells, read-out: anti-proliferative IC50) is listed as about 6 nM and the “inhibition of human coronary artery smooth muscle cell proliferation” value ([4]; in vitro cell culture) is listed as “completely inhibit”.
